Data on eight molecules can be found in publication PMC6017328, “Tetrasubstituted Imidazolium Salts as Potent Antiparasitic Agents against African and American Trypanosomiases” (Molecules : A Journal of Synthetic Chemistry and Natural …, 2018).

Structures are written as SMILES. Read-outs that look alike come from different tables or passages of the source.

For series [1] the following is noted: cited from earlier work.
The subject of series [2] is T. cruzi epimastigotes (CL Brener stain). Put plainly: T. cruzi culturing and evaluation of trypanocidal activity (resazurin). Format: cell-based. As to conditions: Trypanosoma cruzi; for EC90: epimastigotes, CL Brener, growth reduced by 90%. How it is done: Activity was determined using 96-well plate assays. Cultures were diluted to 2.5 × 10^5 mL^−1, aliquoted in triplicate at a range of compound concentrations, and incubated for 4 days. Resazurin was added and the plates incubated for a further 3 days, then read in a Spectramax plate reader as outlined above.
On the technique in general: Resazurin is reduced to fluorescent resorufin, in cell work by metabolically active cells.

Series [3] deals with Bloodstream form T. brucei (strain 221). Put plainly: T. brucei culturing and evaluation of trypanocidal activity (resazurin). Format: cell-based. As to conditions: Trypanosoma brucei; for EC50: concentration reducing parasite growth by 50%, triplicate; for EC90: concentration reducing parasite growth by 90%. How it is done:
Bloodstream form T. brucei (strain 221) were grown as described previously. […] Logarithmically growing T. brucei were diluted to 2.5 × 10^4 mL^−1 and aliquoted into 96-well plates. Then, compounds were added at a range of concentrations and the plates incubated at 37 °C. Each compound was tested in triplicate. Resazurin was added after 48 h and the plates incubated for a further 16 h. The plates were then read in a Spectramax plate reader. Results were analyzed using GraphPad Prism.

In another series the test system is L6 rat myoblast cells. Put plainly: Cytotoxic activity against rat skeletal myoblast L6 cells. In kind it is cell-based. As to conditions: 144 h; cytotoxicity, L6 rat myoblasts, 6 days. As for the experimental part: Cytotoxicity was assessed using microtiter plates following a previously described protocol. Briefly, L6 cells were seeded at 1 × 10^4 mL^−1 in 200 μL of growth medium at different compound concentrations. The plates were incubated for 6 days at 37 °C and then 20 μL resazurin was added to each well. After a further 8 h incubation, fluorescence was determined using a Spectramax plate reader.

The nature of series [4]: PAMPA-BBB assay (brain permeability). Format: in vitro ADME, porcine. As to conditions: for Papp: pig, PAMPA, PBS:EtOH 70:30, n=3 ± S.D. in Table S5, read-out: PAMPA-BBB permeability (Pe), experimental value; for CNS Prediction: predictive penetration in the CNS from PAMPA-BBB Pe.
Procedure: The in vitro permeability (Pe) of the tested compounds and fourteen reference drugs through a lipid extract of porcine brain membrane was assessed by using a parallel artificial membrane permeation assay. Commercial drugs and the target compounds were tested using a mixture of phosphate-buffered saline (PBS): EtOH 70:30. The assay was validated by comparing the experimental permeability with the reported values of the reference drugs.
Series [5] has as its system T. cruzi epimastigotes (CL Brener stain). As to conditions: read-out: EC50 (T. cruzi); comparison drug; cited from earlier work.
Series [6] deals with Bloodstream form T. brucei (strain 221). As to conditions: read-out: EC50 (T. brucei); comparison drug; cited from earlier work.

On to `CN/C(=N/CCSCc1nc[nH]c1C)NC#N` [Cimetidine], for which the “PAMPA-BBB permeability (Pe), bibliography value” in series [1] is given as 0.0 10-6 cm s-1.

For orientation: EC50 means the concentration needed to bring the measured effect to its halfway point. The term EC90 denotes the concentration at which the effect reaches the 90% level. A lower EC90 goes with greater potency. In series [2], `Cc1ccc(-n2c[n+](C(C)(C)C)c(Cc3ccccc3)c2-c2ccccc2)cc1` [Compound 1a] returned an EC50 of 1850 ± 290 nM and an EC90 of 3410 ± 140 nM. In addition, in series [3], the EC50 was found to be 180 ± 10 nM and the 90% effect level (EC90) was put at 280 ± 70 nM. Also, in the series with L6 rat myoblast cells, a half-maximal response (EC50) required 33900 ± 3300 nM. Also, in series [4], the Papp turned out to be 4.2 ×10⁻⁶ cm/s and the “CNS Prediction” value was “CNS+/-”.

As for `COc1ccc(-n2c[n+](-c3ccc(OC)cc3)c(Cc3ccccc3)c2-c2ccc(C)cc2)cc1` [Compound 1b], the half-maximal effective concentration (EC50) in series [2] stood at 440 ± 10 nM; in series [3], 40 nM; in the series with L6 rat myoblast cells it was 4600 ± 380 nM. Further, the EC90 in series [2] came to 1290 ± 50 nM; in series [3] it was 50 nM. For the same molecule, the Papp in series [4] was determined as 4.9 ×10⁻⁶ cm/s. Besides, in series [4], the “CNS Prediction” value is listed as “CNS+/-”.

In series [2], `COc1ccc(-n2c[n+](C(C)(C)C)c(Cc3ccc(C)cc3)c2-c2ccc(Cl)cc2)cc1` [Compound 1c] gave a concentration giving a half-maximal response (EC50) of 1720 ± 390 nM and an EC90 of 2980 ± 190 nM. Further, in series [3], the EC50 stood at 180 ± 10 nM and it took 200 ± 10 nM to reach the 90% level (EC90). Also, in the series with L6 rat myoblast cells, a half-maximal effect (EC50) was put at 9690 ± 580 nM. Besides, in series [4], the Papp came out at 2.6 ×10⁻⁶ cm/s and the “CNS Prediction” value was “CNS+/-”.

In series [2], `Cc1ccc(-n2c[n+](-c3ccc4ccccc4c3)c(Cc3ccccc3)c2-c2ccc(Cl)cc2)cc1` [Compound 1d] returned an EC50 of 540 ± 80 nM and an EC90 of 1000 ± 40 nM. In series [3], the EC50 was 70 nM and it took 90 nM to reach the 90% level (EC90). Also, a half-maximal effect with L6 rat myoblast cells (EC50) was put at 4090 ± 280 nM. Further, in series [4], the Papp was 2.4 ×10⁻⁶ cm/s and the “CNS Prediction” value is “CNS+/-”.

In series [2], `Cc1ccc(-n2c[n+](CC(=O)[O-])c(Cc3ccccc3)c2-c2ccccc2)cc1` [Compound 1e] showed an EC50 of more than 20000 nM and an EC90 of more than 20000 nM. Also, in series [3], a half-maximal effect (EC50) was put at 5260 ± 10 nM and the EC90 was determined as 6790 ± 90 nM. The molecule further showed an EC50 in the series with L6 rat myoblast cells of more than 130000 nM. For the same molecule, the “BBB permeation (in words)” value in series [4] (according to the limits of Di et al., low Pe < 1.89, uncertain 5.16 > Pe 10^−6 cm s^−1 > 1.89) is listed as “low BBB permeation”. Moreover, in series [4], the Papp stood at 1.6 ×10⁻⁶ cm/s and the “CNS Prediction” value is reported as “CNS-”.

Take `CN1C(C(=O)Nc2ccccn2)=C(O)c2ccccc2S1(=O)=O` [Piroxicam, reference compound]: the Papp in series [4] turned out to be 1.7 ± 0.03 ×10⁻⁶ cm/s.

Regarding `CC1CS(=O)(=O)CCN1/N=C/c1ccc([N+](=O)[O-])o1` (stereo not shown) [nifurtimox], the EC50 in series [5] and in series [6] was approximately 2000 nM in each case.
